In patent publication US20090092975A1, “SELECTABLE MARKER” (Mologic Ltd, priority 2005, published 2009):

How the values were obtained:
[1] = Table 1, monocarboxylic weak acids; cited from earlier work
[2] = test system: Saccharomyces cerevisiae strain 62 expressing PAD1; format: cell-based; settings: predicted decarboxylation product in headspace; weak acid 0.5 mM, YEPD pH 4, 10 h at 28° C.; 0 = no decarboxylation
Procedure: S. cerevisiae strain 62 (which expresses the PAD1 gene) was cultured for 48 hr in YEPD pH 4, Yeast extract 10 g, Peptone 20 g, Glucose 20 g, at 28° C. in a shake flask, 120 rpm. The stationary-phase cells were inoculated into capped 28 ml McCartney bottles containing 10 mls YEPD pH 4, at 1 million cells per ml. Each bottle also contained one of 70 substrate weak acids at 0.5 mM. Tubes were then shaken for 10 h at 28° C.
1 ml samples of the headspace were passed into stainless-steel thermal desorption tubes, followed by a 10 ml air flush. (Desorption tubes—89 mm×5 mm ID, packed with 200 mg Tenax TA 60-80 mesh, Phase Separations, UK).
Thermal desorption tubes were placed in a Perkin Elmer ATD400 thermal desorption system, and the volatiles transferred to the Gas Chromatograph in a 2 stage process. Primary desorption was 250° C. for 10 min with a helium flow of […]. Using a split ratio of 1:1, volatiles were retained on a cold trap (25 mg Tenax TA) held at −30° C. Secondary desorption was carried out by rapidly heating and holding the cold trap at 250° C. for 2 min, with a helium flow of 20 ml/min and split ratio of 19:1. A DB624 column {30 m×0.32 mm, 1.8 microns film thickness} installed in a Carbo Erba GC800 was used to achieve separation and introduction of the volatile to the mass spectrometer. The column temperature was held at 40° C. for 2 min then increased at 5° C./min to 250° C. The column outlet was coupled via a heated transfer line at 250° C. into the ion source of the mass spectrometer operated at 70 eV in electron ionization (EI) mode. The source temperature was at 200° C. and the detector photomultiplier at 500V. Full scan MS data acquisition was carried out from m/z 30 to 300, with 0.6 sec scan and 0.05 sec inter scan delay.
The results are shown in Table 3, in each case the “predicted product” being the product which would be produced if decarboxylation of the weak acid were to take place.

Cc1ccccc1C(=O)O [o-Toluic acid]
Pka [1]: 3.98

O=C(O)/C=C/c1c[nH]cn1 [Urocanic acid]
GCMS Peak area [2]: 0

O=C(O)C=Cc1ccc(Br)cc1 [4-Bromo-cinnamic acid]
GCMS Peak area [2]: 1038

CC(C)c1ccc(C(=O)O)cc1 [Cumic acid]
Pka [1]: 4.35

CC(C)CCC(=O)O [4-Methylvaleric acid]
Pka [1]: 4.8689

C#CCCC(=O)O [4-Pentynoic acid]
Pka [1]: 4.1342

COc1cc(C(=O)O)ccc1O [Vanillic acid]
Pka [1]: 4.51

O=CC=Cc1ccccc1 [Cinnamaldehyde]
GCMS Peak area [2]: 0

CC(C(=O)O)c1ccccc1 (centres unmarked) [2-Phenylpropionic acid]
Pka [1]: 4.0606

O=C(O)C1CCCC1 [Cyclopentanecarboxylic acid]
Pka [1]: 4.8

CCC(C)CC(=O)O (centres unmarked) [3-Methylvaleric acid]
Pka [1]: 4.7868

CCC(C)(C)C(=O)O [2,2-Dimethylbutyric acid]
Pka [1]: 5.03

C/C=C/CC(=O)O [trans-3-Pentenoic acid]
Pka [1]: 4.36

O=C(O)C=Cc1ccco1 [Furylacrylic acid]
GCMS Peak area [2]: 15611

O=C(O)C1(C(=O)O)CC1 [1,1-Cyclopropanedicarboxylic acid]
Pka [1]: 3.114

C=C(Cl)C(=O)O [2-Chloroacrylic acid]
Pka [1]: 2.6975

O=C(O)CC1CCCCCC1 [Cycloheptylacetic acid]
Pka [1]: 4.822

CC#CC(=O)O [2-Butynoic acid]
Pka [1]: 2.6546

O=C(O)C=Cc1c[nH]c2ccccc12 [Indole-acrylic acid]
GCMS Peak area [2]: 0

CN(C)c1ccc(C=CC(=O)O)cc1 [4-Dimethylamino-cinnamic acid]
GCMS Peak area [2]: 0

O=C(O)Cc1ccccc1 [Phenylacetic acid]
Pka [1]: 4.31

O=C(O)C(=Cc1ccccc1)c1ccccc1 [alpha-phenyl-cinnamic acid]
GCMS Peak area [2]: 0

O=C(O)c1cccc([N+](=O)[O-])c1 [3-Nitrobenzoic acid]
Pka [1]: 3.46

CCCC=CCC(=O)O [3-Heptenoic acid]
Pka [1]: 4.7696

COc1ccccc1C=CC(=O)O [2-Methoxy-cinnamic acid]
GCMS Peak area [2]: 128

OCC=Cc1ccccc1 [Cinnamyl alcohol]
GCMS Peak area [2]: 0

O=C(O)CCCl [3-Chloropropionic acid]
Pka [1]: 3.8924

O=C(O)C=Cc1cccc(Br)c1 [3-Bromo-cinnamic acid]
GCMS Peak area [2]: 248

O=C(O)c1cccc(Cl)c1 [3-Chlorobenzoic acid]
Pka [1]: 3.81

CCCCCCCCCCC(=O)O [Undecanoic acid]
Pka [1]: 5.03

CCCCCCC=CCC(=O)O [3-Decenoic acid]
Pka [1]: 4.728

O=C(O)COc1ccccc1 [Phenoxyacetic acid]
Pka [1]: 3.17

O=C(O)c1ccccc1 [Benzoic acid]
GCMS Peak area [2]: 0

O=C(O)CCCC1CCCCC1 [Cyclohexanebutyric acid]
Pka [1]: 4.9061

O=C(O)C1CC=CCC1 (centres unmarked) [3-Cyclohexene-1-carboxylic acid]
Pka [1]: 4.593

O=C(O)C=Cc1ccccc1Br [2-Bromo-cinnamic acid]
GCMS Peak area [2]: 2912

C=CCC(=O)O [Vinylacetic acid]
Pka [1]: 4.51

CC1CC1C(=O)O (centres unmarked) [2-Methyl-cyclopropane carboxylic acid]
Pka [1]: 4.8

CC(Cl)C(=O)O (centres unmarked) [2-Chloropropionic acid]
Pka [1]: 2.897

CCOc1ccccc1C=CC(=O)O [2-Ethoxycinnamic acid]
GCMS Peak area [2]: 193

CCCCC=CCC(=O)O [3-Octenoic acid]
Pka [1]: 4.7926

C/C=C(\C)C(=O)O [Tiglic acid]
Pka [1]: 4.4564

O=C(O)C1CCCCCC1 [Cycloheptanecarboxylic acid]
Pka [1]: 4.9518

O=Cc1ccc(C=CC(=O)O)cc1 [4-Formyl-cinnamic acid]
GCMS Peak area [2]: 0

C#CC(=O)O [Propiolic acid]
Pka [1]: 2.39

CCc1ccc(C(=O)O)cc1 [4-Ethylbenzoic acid]
Pka [1]: 4.35

O=C(O)CC1CC1 [Cyclopropylacetic acid]
Pka [1]: 4.8873

O=C(O)C=Cc1ccccc1F [2-Fluoro-cinnamic acid]
GCMS Peak area [2]: 3760

O=C(O)CCc1ccccc1 [Hydrocinnamic acid]
GCMS Peak area [2]: 0

O=C(O)C#Cc1ccccc1 [Phenyl-propiolic acid]
GCMS Peak area [2]: 0

CCCC(C)C(=O)O (centres unmarked) [2-Methylvaleric acid]
Pka [1]: 4.79

O=C(O)CC1C=CCC1 (centres unmarked) [2-Cyclopentene-1-acetic acid]
Pka [1]: 4.61

O=C(O)C=Cc1cccc(F)c1 [3-Fluoro-cinnamic acid]
GCMS Peak area [2]: 14027

C=C(C)C(=O)O [Methacrylic acid]
Pka [1]: 4.61

O=C(O)C=Cc1ccc(F)c(F)c1F [2,3,4-Trifluoro-cinnamic acid]
GCMS Peak area [2]: 0

O=C(O)C=Cc1ccccc1[N+](=O)[O-] [2-Nitro-cinnamic acid]
GCMS Peak area [2]: 0

CC1(C(=O)O)CC1 [1-Methyl-cyclopropane carboxylic acid]
Pka [1]: 5.1

O=C(O)CCCc1ccccc1 [4-Phenylbutyric acid]
Pka [1]: 4.76

O=C(O)C=Cc1ccc([N+](=O)[O-])cc1 [4-Nitro-cinnamic acid]
GCMS Peak area [2]: 0

COc1ccc(C=CC(=O)O)cc1 [4-Methoxy-cinnamic acid]
GCMS Peak area [2]: 1899

O=C(O)C=Cc1cccc(Cl)c1 [3-Choro-cinnamic acid]
GCMS Peak area [2]: 907

O=C(O)CC1CCCCC1 [Cyclohexylacetic acid]
Pka [1]: 4.8806

O=C(O)C=Cc1cccc(C(F)(F)F)c1 [3-Trifluoromethyl-cinnamic acid]
GCMS Peak area [2]: 946

O=C(O)C=Cc1ccc(C=CC(=O)O)cc1 [3-[4-(2-Carboxy-vinyl)-phenyl]-acrylic acid]
GCMS Peak area [2]: 0

O=C(O)C1=CCCCC1 [1-Cyclohexene-1-carboxylic acid]
Pka [1]: 3.7528

O=C(O)/C=C/c1ccc(O)cc1 [Coumaric acid]
GCMS Peak area [2]: 0

O=C(O)C=Cc1ccccc1 [Cinnamic acid]
GCMS Peak area [2]: 17538

CCCCCC(=O)O [Hexanoic acid]
GCMS Peak area [2]: 0

Cc1ccccc1C=CC(=O)O [2-Methyl-cinnamic acid]
GCMS Peak area [2]: 18046

COc1cccc(C=CC(=O)O)c1 [3-Methoxy-cinnamic acid]
GCMS Peak area [2]: 178

O=C(O)/C=C/c1ccc(Cl)cc1Cl [trans-2,4-Dichloro-cinnamic acid]
GCMS Peak area [2]: 4428

O=C(O)c1ccco1 [2-Furoic acid]
Pka [1]: 3.13

O=C(O)/C=C/Cl [trans-3-Chloroacrylic acid]
Pka [1]: 3.2506

O=C(O)CCC1CCCC1 [3-Cyclopentylpropionic acid]
Pka [1]: 4.81

O=C(O)c1ccsc1 [Thiophene-3-carboxylic acid]
Pka [1]: 4.08

C#CCCCCC(=O)O [6-Heptynoic acid]
Pka [1]: 4.71

O=C(O)C=Cc1ccccc1C(F)(F)F [2-Trifluoromethyl-cinnamic acid]
GCMS Peak area [2]: 1440

O=C(O)CC1CCCC1 [Cyclopentylacetic acid]
Pka [1]: 4.76

O=C(O)C=Cc1ccc(C(F)(F)F)cc1 [4-Trifluoromethyl-cinnamic acid]
GCMS Peak area [2]: 1600

CCCCC(=O)O [Valeric acid]
GCMS Peak area [2]: 0

O=C(O)C=Cc1ccc(Cl)cc1 [4-Choro-cinnamic acid]
GCMS Peak area [2]: 12391

COc1ccc(C=CC(=O)O)c(OC)c1OC [2,3,4-Trimethoxy-cinnamic acid]
GCMS Peak area [2]: 0

O=C(O)C=Cc1cccc([N+](=O)[O-])c1 [3-Nitro-cinnamic acid]
GCMS Peak area [2]: 0

O=C(O)C1=CCCC1 [1-Cyclopentene-1-carboxylic acid]
Pka [1]: 3.7528

O=C(O)/C=C\Cl [cis-3-Chloroacrylic acid]
Pka [1]: 3.2506

CCC(CC)C(=O)O [2-Ethylbutyric acid]
Pka [1]: 4.71

O=C(O)c1ccccc1Cl [2-Chlorobenzoic acid]
Pka [1]: 2.89

CCOc1ccc(C=CC(=O)O)cc1 [4-Ethoxycinnamic acid]
GCMS Peak area [2]: 227

COc1cccc(C(=O)O)c1 [m-Anisic acid]
Pka [1]: 4.09

CC(C)(C)CC(=O)O [3,3-Dimethylbutyric acid]
Pka [1]: 4.961

C=CCCC(=O)O [4-Pentenoic acid]
Pka [1]: 4.6364

O=C(O)C=Cc1ccccc1Cl [2-Chloro-cinnamic acid]
GCMS Peak area [2]: 4911

CC(C)=CCC[C@@H](C)CC(=O)O [(R)(+)Citronellic acid]
Pka [1]: 4.752

O=C(O)c1ccccc1[N+](=O)[O-] [2-Nitrobenzoic acid]
Pka [1]: 2.47

C=CCCCCC(=O)O [6-Heptenoic acid]
Pka [1]: 4.81
